Experimental data reported in ChEMBL document CHEMBL1122755, “Synthesis and murine antineoplastic activity of bis[(carbamoyloxy)methyl] derivatives of pyrrolo[2,1-a]isoquinoline” (1984).
The source made the active and inactive calls. The rule behind the calls is not given here.

Columns and labels:
[1] = tested on: Mus musculus; experiment: % T/C value was measured against Murine P388 Lymphocytic Leukemia cells in CDF1 mice at the dose 100 mg/kg; toxic; format: functional, organism-based; design: dose 100 mg/kg
[2] = tested on: Mus musculus; experiment: % T/C value was measured against Murine P388 Lymphocytic Leukemia cells in CDF1 mice at the dose 12.5 mg/kg; format: functional
[3] = tested on: Mus musculus; experiment: % T/C value was measured against Murine P388 Lymphocytic Leukemia cells in CDF1 mice at the dose 200 mg/kg; toxic; format: functional, organism-based; design: dose 200 mg/kg
[4] = tested on: Mus musculus; experiment: % T/C value was measured against Murine P388 Lymphocytic Leukemia cells in CDF1 mice at the dose 25 mg/kg; format: functional
[5] = tested on: Mus musculus; experiment: % T/C value was measured against Murine P388 Lymphocytic Leukemia cells in CDF1 mice at the dose 50 mg/kg; format: functional
[6] = tested on: Mus musculus; experiment: Change in weight of P388 lymphocytic leukemia infected mice was determined when the compound was administered at dose of 12.5 mg/kg; format: functional
[7] = tested on: Mus musculus; experiment: Change in weight of P388 lymphocytic leukemia infected mice was determined when the compound was administered at dose of 25 mg/kg; format: functional
[8] = tested on: Mus musculus; experiment: Change in weight of P388 lymphocytic leukemia infected mice was determined when the compound was administered at dose of 50 mg/kg; format: functional
[9] = tested on: Homo sapiens; experiment: Optimum % T/C value was measured against Human MX-1 breast Xenograft at the dose of 600 mg/kg (s.c.), schedule was Q01DX03 (three doses), day 1(first dose was given, tumor was implanted on day zero); format: functional
[10] = tested on: Homo sapiens; experiment: Optimum % T/C value was measured against Human CX-1 colon Xenograft at the dose of 300-600mg/kg, schedule was Q01DX04 (four doses), day 1(first dose was given, tumor was implanted on day zero); IA means inactive; format: functional, organism-based
[11] = tested on: Homo sapiens; experiment: Optimum % T/C value was measured against Human LX-1 lung Xenograft at the dose of 150 mg/kg, schedule was Q01DX03, day 1; format: functional
[12] = tested on: Mus musculus; experiment: % T/C value was measured against Murine P388 Lymphocytic Leukemia cells in CDF1 mice at the dose 3.13 mg/kg; format: functional
[13] = tested on: Mus musculus; experiment: % T/C value was measured against Murine P388 Lymphocytic Leukemia cells in CDF1 mice at the dose 50 mg/kg; toxic; format: functional, organism-based; design: dose 50 mg/kg
[14] = tested on: Mus musculus; experiment: % T/C value was measured against Murine P388 Lymphocytic Leukemia cells in CDF1 mice at the dose 6.25 mg/kg; format: functional
[15] = tested on: Mus musculus; experiment: Optimum % T/C value was measured against Murine B16 melanocarcinoma cells at the dose of 12.5 mg/kg, schedule was Q01DX09, day 1; format: functional
[16] = tested on: Mus musculus; experiment: Optimum % T/C value was measured against Murine CD8F1 mammary cells at the dose of 250 mg/kg (subcutaneous), schedule was Q01DX01 (one dose), day 21(21 dose was given, tumor was implanted on day zero); format: functional
[17] = tested on: Mus musculus; experiment: Optimum % T/C value was measured against Murine L1210 lymphoid leukemia cells at the dose of 25 mg/kg, schedule was Q01DX09 (nine doses), day 1(first dose was given, tumor was implanted on day zero); format: functional
[18] = tested on: Mus musculus; experiment: Optimum % T/C value was measured against Murine Lewis lung carcinoma cells at the dose of 3.12-50mg/kg, schedule was Q01DX09 (nine doses), day 1(first dose was given, tumor was implanted on day zero); inactive; format: functional, organism-based
[19] = tested on: Mus musculus; experiment: Optimum % T/C value was measured against Murine colon 38 cells at the dose of 100 mg/kg (subcutaneous), schedule was Q01DX02 (two doses), day 2(second dose was given, tumor was implanted on day zero); format: functional, MC-38
[20] = tested on: Mus musculus; experiment: Change in weight of P388 lymphocytic leukemia infected mice was determined when the compound was administered at dose of 3.13 mg/kg; format: functional
[21] = tested on: Mus musculus; experiment: Change in weight of P388 lymphocytic leukemia infected mice was determined when the compound was administered at dose of 6.25 mg/kg; format: functional
[22] = tested on: Mus musculus; experiment: % T/C value was measured against Murine P388 Lymphocytic Leukemia cells in CDF1 mice at the dose 25 mg/kg; toxic; format: functional, organism-based; design: dose 25 mg/kg
[23] = tested on: Mus musculus; experiment: % T/C value was measured against Murine P388 Lymphocytic Leukemia cells in CDF1 mice at the dose 100 mg/kg; format: functional
[24] = tested on: Mus musculus; experiment: Change in weight of P388 lymphocytic leukemia infected mice was determined when the compound was administered at dose of 100 mg/kg; format: functional
[25] = tested on: Mus musculus; experiment: % T/C value was measured against Murine P388 Lymphocytic Leukemia cells in CDF1 mice at the dose 200 mg/kg; format: functional
[26] = tested on: Mus musculus; experiment: Change in weight of P388 lymphocytic leukemia infected mice was determined when the compound was administered at dose of 200 mg/kg; format: functional

Compound	T/C [1]	T/C [2]	T/C [3]	T/C [4]	T/C [5]	Weight change [6]	Weight change [7]	Weight change [8]	T/C [12]	T/C [14]	Weight change [20]	Weight change [21]	T/C [23]	Weight change [24]	other results
CC1Cc2ccccc2-c2c(COC(=O)NC3CCCCC3)c(COC(=O)NC3CCCCC3)cn21 (stereo not drawn)	Toxic	178%	Toxic	182%	101%	-4.3%	-4.6%	-6.4%							
COc1ccc2c(c1)CCn1c(C)c(COC(=O)NC(C)C)c(COC(=O)NC(C)C)c1-2	Toxic	153%	Toxic	153%		-3 g	-5.6 g		142%	136%	-1.1 g	-2.1 g			T/C [9]: -100%; T/C [10]: inactive; T/C [11]: 55%; T/C [13]: Toxic; T/C [15]: 180%; T/C [16]: -27%; T/C [17]: 152%; T/C [18]: inactive; T/C [19]: 48%
CCNC(=O)OCc1cn2c(c1COC(=O)NCC)-c1ccccc1CC2C (stereo not drawn)	Toxic	185%	Toxic			-6 g			142%	141%	-1.3 g	-1.2 g			T/C [22]: Toxic; T/C [13]: Toxic
CNC(=O)OCc1c(COC(=O)NC)c(-c2ccccc2)n(C)c1C	Toxic	130%		145%	90%	-3.3 g	-3.9 g	-4.6 g		135%		-2.5 g			
CNC(=O)OCc1c(COC(=O)NC)c(-c2ccc(OC)cc2)n2c1CCC2		132%	Toxic	132%	131%	-3.2 g	-3.3 g	-4 g					125%	-4 g	
CNC(=O)OCc1c(COC(=O)NC)c(-c2ccc(OC)cc2)n(C)c1C	Toxic	138%		145%	152%	-3.2 g	-3.4 g	-4.4 g		135%		-2.4 g			
CNC(=O)OCc1cn2c(c1COC(=O)NC)-c1ccccc1CC2C (stereo not drawn)	Toxic	153%	Toxic	169%	79%	-4.4 g	-4.8 g	-5 g	138%	138%	-0.3 g	-1 g			
CNC(=O)OCc1c(COC(=O)NC)c(-c2ccccc2)n2c1CCC2					124%			-2.1 g					124%	-1.8 g	T/C [25]: 60%; Weight change [26]: -3.5 g
COc1ccc2c(c1)CCn1c(C)c(COC(=O)NC(=O)NC3CCCCC3)c(COC(=O)NC(=O)NC3CCCCC3)c1-2		134%	Toxic	137%	151%	-4.4 g	-6.7 g	-6.5 g		137%		-3.3 g	92%	-6 g	
